Experimental data as given in patent publication US20250325675A1, “APTAMER, CONJUGATE, COMPOSITION, METHOD FOR PREPARING SAME, AND USE THEREOF” (priority 2022, published 2025).

Tests used:
[1] = test system: MCF-7 human breast cancer cells; assay: High content imaging: entry of conjugates into MCF-7 cells; type: cell-based; details: 100 nM, 30 min 37°C
Method: (§1) In this experiment, the entry of conjugate AP1 provided by the present disclosure and comparative conjugate comparative AP10 into different cells was observed by a PerkinElmer High Content Imaging system (Operatta).
(§2) U118MG glioma cells, SVGp12 normal astrocytes, T98G human brain glioma cells, U251 human glioma cells, A549 human non-small cell lung cancer cells, MCF-7 human breast cancer cells, and 293T human kidney epithelial cells were all purchased from the Shanghai Cell Bank of Chinese Academy of Sciences. […] The supernatant was aspirated and DPBS buffer (purchased from Thermo Fisher) was added to wash the plate 2 times (100 μL each time).
(§3) Conjugate AP1 prepared above and yeast tRNA were respectively formulated into conjugate solution 2A with DMEM medium, and the conjugate solution 2A comprised yeast tRNA at a final concentration of 100 μg/mL and conjugate AP1 at a final concentration of 100 nM. […]
(§4) Normalization was performed according to the mean fluorescence intensity of control group 2Y, that is, subtracting the mean fluorescence intensity of control group 2Y from the fluorescence intensity of test group 2X before performing imaging.

[2] = test system: 293T human renal epithelial cells; assay: High content imaging: entry of conjugates into 293T cells; type: cell-based; details: 100 nM, 30 min 37°C, normal cells
Method: as §1, §2, §3, §4

[3] = test system: A549 human non-small cell lung cancer tumor spheres; assay: High content imaging: entry into A549 tumor spheres; type: cell-based; details: 100 nM, imaging without washing
Method: (§5) In this experiment, the entry of conjugate AP1 provided by the present disclosure and comparative conjugate comparative AP10 into U118MG glioma tumor spheres and A549 human non-small cell lung cancer tumor spheres was observed by a PerkinElmer High Content Imaging system (Operatta).
(§6) 80 μL fresh, sterilized and unsolidified 2% agarose was added into the culture wells of a 96-well plate. […] Half of the supernatant was aspirated every 48 h and fresh DMEM medium was added along the wall of the culture wells. After 7 days of culture, the cells were observed under the microscope to confirm that complete cell spheres were obtained, indicating successful tumor sphere cultivation.
(§7) Each culture well was added with AP1 or comparative AP10 according to the method of experimental Example 2, and imaged in a high content imaging system, with the only difference of directly performing imaging after culture without washing and performing imaging according to the measured fluorescence intensity of Cy5.

U251 human glioma cells = assay: High content imaging: entry of conjugates into U251 cells; type: cell-based; details: 100 nM, 30 min 37°C
Method: as §1, §2, §3, §4

[4] = test system: A549 human non-small cell lung cancer cells; assay: High content imaging: entry of conjugates into A549 cells; type: cell-based; details: 100 nM, 30 min 37°C
Method: as §1, §2, §3, §4

[5] = test system: U118MG glioma tumor spheres; assay: High content imaging: entry into U118MG tumor spheres; type: cell-based, human; details: 100 nM, imaging without washing
Method: as §5, §6, §7

SVGp12 normal astrocytes = assay: High content imaging: entry of conjugates into SVGp12 normal astrocytes; type: cell-based, human; details: 100 nM, 30 min 37°C
Method: as §1, §2, §3, §4

U118-MG glioma cells = assay: Flow cytometry: entry of conjugates into U118-MG glioma cells in vitro; type: cell-based, human; details: 1 h 37°C, yeast tRNA 100 μg/mL, flow cytometry
Method: U118MG cells were seeded into a 96-well plate at 5×10^5 cells/well. Conjugate AP1 prepared above and yeast tRNA were respectively formulated into conjugates solution 1A, 1B, 1C, 1D, 1E, 1F, 1G, 1H, and 1I with DMEM medium, and these conjugate solutions 1A-1I comprised yeast tRNA at a final concentration of 100 μg/mL and respectively comprised conjugate AP1 at final concentrations of 5 nM, 10 nM, 20 nM, 40 nM, 60 nM, 80 nM, 100 nM, 150 nM, 200 nM, and […].
Control conjugate comparative AP10 prepared above and yeast tRNA were respectively formulated into conjugates solution 1A′, 1B′, 1C′, 1D′, 1E′, 1F′, 1G′ 1H′, and 1I′ with DMEM medium, and these conjugate solutions 1A′-1I′ comprised yeast tRNA at a final concentration of 100 μg/mL and respectively comprised control conjugate comparative AP10 at final concentrations of 5 nM, 10 nM, 20 nM, 40 nM, 60 nM, 80 nM, 100 nM, 150 nM, 200 nM, and […].
The aforementioned culture wells containing U118MG cells were respectively added with the conjugate solutions 1A-1I above in an amount of 200 μL/well and designated as test group 1A-test group 1I. The aforementioned culture wells containing U118MG cells were respectively added with the conjugate solution 1A′-1I′ above in an amount of 200 μL/well and designated as control group 1A′-control group 1I′. Another culture well containing U118MG cells was added with 200 μL DMEM medium containing yeast tRNA at a final concentration of 100 μg/mL and designated as blank control group 1J. The 96-well plate containing the above test groups and the blank control group were incubated at 37° C. for 1 h in the dark; after incubation, the supernatant of the reaction mixture of each test group and the blank control group was aspirated, and DPBS buffer (purchased from Thermo Fisher) was added to wash the plate 3 times (100 μL each time). After the washing solution was aspirated, each culture well was added with 100 μL DMEM medium to obtain a cell suspension. The supernatant was removed by centrifugation and then 500 μL DPBS buffer was added to re-suspend the cells. Flow cytometry analysis was performed with flow cytometer (BD Biosciences): 10,000 cells in each test group or the blank control group were analyzed, the fluorescence intensity distribution was determined and the mean fluorescence intensity (MFI, a.u.) was calculated. Furthermore, the mean fluorescence intensity corresponding to each final concentration of conjugates is listed in Table 4 below for comparison, and the relative fluorescence difference R is calculated according to the following equation: R=(MFIAP1−MFICAP10)/MFICAP10.
Therein, MFIAP1 represents mean fluorescence intensity of conjugate AP1 in U118-MG glioma cells, and MFICAP10 represents mean fluorescence intensity of comparative AP10 in U118-MG glioma cells.

[6] = test system: U118MG subcutaneous tumor; assay: In vivo distribution of conjugates with different modifications in U118MG subcutaneous tumor model mice (Experimental Example 6); parameters: species or system NOD-SCID mice; details: 3 mg/kg tail vein; 4 h to 24 h after administration
Method: U118MG subcutaneous tumor model mice were prepared according to the method described in experimental Example 4.
9 mice were divided into 3 groups (3 mice per group). AP2, AP3 and comparative AP12 solutions were respectively administered to each mouse of each group by tail vein injection. […] The three groups of mice were respectively designated as test group 6A, test group 6B and test group 6C. […] On Day 10 after administration, one mouse of blank control group 6Y and one mouse of test group 6A was respectively euthanized and tumor tissues were taken for fluorescence imaging, and the results are shown in FIG. 5H. In FIGS. 5A-5H, Blank represents blank control group 6Y.

hSTAT3 mRNA = hSTAT3 mRNA inhibition by free uptake in PANC-1 cells, qPCR (Experimental Example 18); type: cell-based; details: PANC1 human pancreatic cancer cells, free uptake 2 μM, RNA extracted after 7 days
Method: PANC-1 human pancreatic cancer cells in the logarithmic growth phase were selected and digested (0.25% pancreatic enzyme). The cells were collected, centrifuged to remove the supernatant, and then resuspended in DMEM medium containing 10% FBS to be formulated into cell culture solution with a concentration of 1×10^5 cells/mL. The solutions were mixed thoroughly, seeded into a 24-well plate (with 1 mL/well, i.e. 1×10^5 cells/well).
After respectively culturing the cell solutions in different culture wells of a 24-well plate for 24 h, the supernatant was aspirated and 900 μL DMEM medium containing 10% FBS was added into each well. […]
For each reverse transcription reaction system, 5 μL of the above cDNA-containing solution was taken as the template. By using a SYBR Select Master Mix Kit (purchased from Thermo Fisher Scientific, Cat. No. 4472908), the target gene hSTAT3 and the internal control gene hGAPDH were amplified in a SteponePlus™ Real-Time fluorescence quantitative PCR Thermal Cycler (purchased from Thermo Fisher Scientific) according to the operation method the instruction. […]
For each test group and control group, the above quantitative PCR detection was performed twice.
The fluorescence quantitative data was analyzed by relative quantitative 2^−ΔΔct method, and the calculation method was as follows: […]

CY5-CfCfAGAGUfCfGCfUfGAGAUfUfCfGUfGGCfGCfUfAUfAUf (CCAGAGUCGCUGAGAUUCGUGGCGCUAUAU; listed as RNA, chemistry not fully specified) [comparative AP10, reference compound]
Cy5 fluorescence signal in cells [1]: neither the tumor cells treated with comparative AP10 nor the 293T human renal epithelial cells showed any fluorescence signal
Cy5 fluorescence signal in cells [2]: nor the 293T human renal epithelial cells showed any fluorescence signal
Cy5 fluorescence signal in tumor spheres [3]: only the edge of the comparative AP10-treated tumor spheres showed significantly weak fluorescence signal
Cy5 fluorescence signal in cells (U251 human glioma cells): neither the tumor cells treated with comparative AP10 nor the 293T human renal epithelial cells showed any fluorescence signal
Cy5 fluorescence signal in cells [4]: neither the tumor cells treated with comparative AP10 nor the 293T human renal epithelial cells showed any fluorescence signal
Cy5 fluorescence signal in tumor spheres [5]: only the edge of the comparative AP10-treated tumor spheres showed significantly weak fluorescence signal
Cy5 fluorescence signal in cells (SVGp12 normal astrocytes): did not show any fluorescence signal
mean fluorescence intensity (MFI) (U118-MG glioma cells; conjugate 5 nM): 25.4 a.u.
mean fluorescence intensity (MFI) (U118-MG glioma cells; conjugate 10 nM): 67.4 a.u.
mean fluorescence intensity (MFI) (U118-MG glioma cells; conjugate 20 nM): 176.4 a.u.
mean fluorescence intensity (MFI) (U118-MG glioma cells; conjugate 40 nM): 443.4 a.u.
mean fluorescence intensity (MFI) (U118-MG glioma cells; conjugate 60 nM): 666.4 a.u.
mean fluorescence intensity (MFI) (U118-MG glioma cells; conjugate 80 nM): 787.4 a.u.
mean fluorescence intensity (MFI) (U118-MG glioma cells; conjugate 100 nM): 1167.4 a.u.
mean fluorescence intensity (MFI) (U118-MG glioma cells; conjugate 150 nM): 1251.4 a.u.
mean fluorescence intensity (MFI) (U118-MG glioma cells; conjugate 200 nM): 1868.4 a.u.
mean fluorescence intensity (MFI) (U118-MG glioma cells; conjugate 500 nM): 4029.4 a.u.

CY5-CmsUmsGmGmAmGmUmUmCmAmGmAmCmGmUmGmUmUmGmCmUmCmUmUmCmCmGmAmUmCmsUmsCm [AP3]
fluorescence intensity in vivo / tumor [6]: still show high fluorescence intensity

CY5-UmCmUmAmUmGmGmCmUmGmCmCmGmAmUmCmUmGmGmUmCmUmCmCmAmUmGmUmAmCmGmUm [AP12]
fluorescence intensity in vivo / tumor [6]: still show high fluorescence intensity

B1: conjugate 37: siRNA sense strand 3′ terminal linked to AP2 delivery group by Spacer18-GfAfUf; Cy5 on antisense strand; SEQ ID NO: 71/48 (conjugate)
sense: CUAGAAAACUGGAUAACGUGAUCUGGAGUUCAGACGUGUUGCUCUUCCGAUCUC
antisense: ACGUUAUCCAGUUUUCUAGCC
modifications: AP2 delivery group, Spacer18 linker, Cy5; misc_feature 19 is linked to Spacer18 at 3' end
inhibition rate against hSTAT3 mRNA (hSTAT3 mRNA): 33%

B2: conjugate 38: siRNA sense strand 5′ terminal linked to 2′-O-cetyl modified aptamer by four propylene phosphate ester groups; Cy5 on antisense strand; SEQ ID NO: 72/48 (conjugate)
sense: CUGGAGUUCAGACGUGUUGCUCUUCCGAUCUCUUCUAGAAAACUGGAUAACGU
antisense: ACGUUAUCCAGUUUUCUAGCC
modifications: cetyl-modified aptamer, propylene phosphate linkers, Cy5, chemistry not fully specified
inhibition rate against hSTAT3 mRNA (hSTAT3 mRNA): 44%
